Experimental data reported in PMC10192880 (Frontiers in Pharmacology, 2023).
Blank lines part the entries; values can stand above or below the compound they belong to.

Tests used:
clinical = test: clinical
Experimental: This was an open-label, three-period, controlled before-and-after trial (China Clinical Trial Registry: ChiCTR1900024344). It was conducted at the Second Affiliated Hospital within Tianjin University of Traditional Chinese Medicine (Tianjin, China). The protocol was approved by the ethics committees of the Second Affiliated Hospital within Tianjin University of Traditional Chinese Medicine. Written informed consent was provided by all participants. This trial was in accordance with the Declaration of Helsinki 1964 and its later amendments.
Men and women aged 18–45 years participated in this trial if they were healthy and the EPHX1 A/A genotype was confirmed. The key exclusion criteria were coagulation disorders or allergies to drugs.
Our trial comprised three periods. […] After 3 days, individuals entered the second period, in which CDDP (10 pills, p. o., t.d.s.) was administered for 5 days.
Moreover, blood samples were taken from participants once a day before CDDP administration for assays of coagulation indices to ensure safety.

[1] = test system: transfected EPHX1 A/G and BL cells; test: MTT cell viability of transfected cells; assay type: cell-based, human; details: 0.0625–8.00 mg/mL for 24 h or 72 h, dose-dependent
Experimental: CDDP was manufactured by Tianjin Tasly Group (Tianjin, China). […] Transfected cells were plated evenly on a 96-well cell-culture plate with ∼8,000 cells/well. They were cultured for 24 h at 37°C. […] Subsequently, to each well was added 10 µL of 3-(4,5-Dimethylthiazol-2-yl)-2,5-diphenyltetrazolium bromide solution (5 mg/mL), and cells were allowed to incubate for an additional 4 h in an atmosphere of 5% CO2 at 37°C. Then, the cells were centrifugated and the […]. Finally, the blue-purple crystals were dissolved using dimethyl sulfoxide (150 µL) with agitation for 10 min. The absorbance of each well was determined at 490 nm. Cell viability (Supplementary Figure S1) was calculated according to the formula: Cell viability=absorbanceexperiment/absorbancecontrol×100%
Thus, the incubation time selected at 24 h.

[2] = by dose adjustment (residual drug converted into a dose), third period: warfarin + CDDP
[3] = by dose adjustment, first period: warfarin 3 mg p.o. alone
[4] = first period: warfarin 3 mg p.o. alone, HVs EPHX1 A/A
[5] = third period: warfarin 3 mg p.o. + CDDP 10 pills p.o., HVs EPHX1 A/A

Structure (SMILES): CC(=O)C[C@H](c1ccccc1)c1c(O)c2ccccc2oc1=O [R-Warfarin]
AUC0-144 (clinical; [2]): 14594 ± 3088 ng/h/mL
Cmax (clinical; [2]): 273.9 ± 58.10 ng/mL
Tmax (clinical; [2]): 0.7143 ± 0.3934 h
Vd (clinical; [2]): 18445 ± 2408 mL
AUC0-144 (clinical; [3]): 11630 ± 2938 ng/h/mL
CL (clinical; [3]): 210.3 ± 57.13 mL/h
Cmax (clinical; [3]): 204.6 ± 71.38 ng/mL
Tmax (clinical; [3]): 1.857 ± 1.435 h
Vd (clinical; [3]): 20505 ± 4506 mL
AUC0-144 (clinical; [4]): 11630 ± 2938 ng/h/mL
CL (clinical; [4]): 210.3 ± 57.13 mL/h
Cmax (clinical; [4]): 204.6 ± 71.38 ng/mL
Tmax (clinical; [4]): 1.857 ± 1.435 h
Vd (clinical; [4]): 20505 ± 4506 mL
AUC0-144 (clinical; [5]): 14594 ± 3088 ng/h/mL
CL (clinical; [5]): 164.8 ± 51.16 mL/h
Cmax (clinical; [5]): 273.9 ± 58.10 ng/mL
Tmax (clinical; [5]): 0.7143 ± 0.3934 h
Vd (clinical; [5]): 16283 ± 2164 mL

Structure (SMILES): CC(=O)C[C@@H](c1ccccc1)c1c(O)c2ccccc2oc1=O [S-Warfarin]
AUC0-144 (clinical; [2]): 7223 ± 1727 ng/h/mL
CL (clinical; [2]): 423.5 ± 91.18 mL/h
Cmax (clinical; [2]): 261.9 ± 54.50 ng/mL
Tmax (clinical; [2]): 0.714 ± 0.393 h
Vd (clinical; [2]): 32429 ± 3754 mL
AUC0-144 (clinical; [3]): 5812 ± 1632 ng/h/mL
CL (clinical; [3]): 466.0 ± 109.7 mL/h
Cmax (clinical; [3]): 199.0 ± 76.90 ng/mL
Tmax (clinical; [3]): 1.500 ± 1.414 h
Vd (clinical; [3]): 37594 ± 9569 mL
AUC0-144 (clinical; [4]): 5812 ± 1632 ng/h/mL
CL (clinical; [4]): 466.0 ± 109.7 mL/h
Cmax (clinical; [4]): 199.0 ± 76.90 ng/mL
Tmax (clinical; [4]): 1.500 ± 1.414 h
Vd (clinical; [4]): 37594 ± 9569 mL
AUC0-144 (clinical; [5]): 7223 ± 1727 ng/h/mL
CL (clinical; [5]): 374.1 ± 82.69 mL/h
Cmax (clinical; [5]): 261.9 ± 54.50 ng/mL
Tmax (clinical; [5]): 0.714 ± 0.393 h
Vd (clinical; [5]): 28630 ± 3437 mL

CL (clinical; both, human, in vivo, po, 3 mg): 144.9 ± 36.87 mL/h
Cmax (clinical; both, human, in vivo, po, 3 mg): 403 ± 148 ng/mL
Tmax (clinical; both, human, in vivo, po, 3 mg): 1.86 ± 1.44 h
Vd (clinical; both, human, in vivo, po, 3 mg): 13393 ± 3036 mL
Structure (SMILES): CC(=O)CC(c1ccccc1)c1c(O)c2ccccc2oc1=O (centres unmarked) [Warfarin]
cells' viability [1]: significantly decreased
